By melting point is commonly meant the temperature of the solid-liquid transition.

For 31 molecules, melting point results are on record in patent US20020026052A1, “3-cyanoquinolines, 3-cyano-1,6-naphthyridines, and 3-cyano-1,7-naphthyridines as protein kinase inhibitors” (American Home Products Corporation, priority 2000, published 2002).

In turn, `Cn1ccnc1Sc1ccc(Nc2c(C#N)cnc3cc(-c4cccc(CN5CCOCC5)n4)ccc23)cc1Cl` [Example 199, 4-{3-Chloro-4-[(1-methyl-1H-imidazol-2-yl)sulfanyl]anilino}-7-[6-(4-morpholinylmethyl)-2-pyridinyl]-3-quinolinecarbonitrile] showed a melting point of 232 to 234 °C.
Consider `Cn1ccnc1Sc1ccc(Nc2c(C#N)cnc3cc(-c4ccc(CN5CCCCC5)s4)ccc23)cc1Cl` [Example 160, 4-{3-Chloro-4-[(1-methyl-1H-imidazol-2-yl)sulfanyl]anilino}-7-[5-(1-piperidinylmethyl)-2-thienyl]-3-quinolinecarbonitrile], for which the melting point is 100 °C (dec.).
On to `Cn1ccnc1Sc1ccc(Nc2c(C#N)cnc3ccc(-c4ccc(CN5CCOCC5)cn4)cc23)cc1Cl` [Example 182, 4-({3-Chloro-4-[(1-methyl-1H-imidazol-2-yl)sulfanyl]phenyl}amino)-6-[5-(4-morpholinylmethyl)-2-pyridinyl]-3-quinolinecarbonitrile], for which the melting point was 238 to 241 °C.
To `COc1cc(Nc2c(C#N)cnc3cc(-c4ccc(CN5CC[S+]([O-])CC5)cc4)ccc23)c(Cl)cc1Cl` [Example 151, 4-[(2,4-Dichloro-5-methoxyphenyl)amino]-7-{4-[(1-oxido-4-thiomorpholinyl)methyl]phenyl}-3-quinolinecarbonitrile] belongs 244 to 247 °C.
To `CN1CCN(Cc2cccc(-c3ccc4c(Nc5ccc(Sc6nccn6C)c(Cl)c5)c(C#N)cnc4c3)n2)CC1` [Example 202, 4-{3-Chloro-4-[(1-methyl-1H-imidazol-2-yl)sulfanyl]anilino}-7-{6-[(4-methyl-1-piperazinyl)methyl]-2-pyridinyl}-3-quinolinecarbonitrile] belongs 157 to 159 °C; to `Cn1ccnc1Sc1ccc(Nc2c(C#N)cnc3cc(-c4ccc(CN5CCOCC5)o4)ccc23)cc1Cl` [Example 154, 4-{3-Chloro-4-[(1-methyl-1H-imidazol-2-yl)sulfanyl]anilino}-7-[5-(4-morpholinylmethyl)-2-furyl]-3-quinolinecarbonitrile], 224 to 226 °C.
To `COc1cc(Nc2c(C#N)cnc3cc(-c4cccc(CN5CCOCC5)n4)ccc23)c(Cl)cc1Cl` belongs 181 to 183 °C; to `N#Cc1cnc2ccc(-n3cccc3C=O)cc2c1Nc1cccc(Br)c1` [Example 60, 4-(3-Bromoanilino)-6-(2-formyl-1H-pyrrol-1-yl)-3-quinolinecarbonitrile], 94 to 95 °C; to `Cn1ccnc1Sc1ccc(Nc2c(C#N)cnc3cc(-c4ccc(N5CCN(CCO)CC5)nc4)ccc23)cc1Cl` [Example 215, 4-({3-Chloro-4-[(1-methyl-1H-irnidazol-2-yl)sulfanyl]phenyl}amino)-7-{6-[4-(2-hydroxyethyl)-1-piperazinyl]-3-pyridinyl}-3-quinolinecarbonitrile], 239 to 241 °C.
Take `CCN1CCN(c2ccc(-c3ccc4ncc(C#N)c(Nc5ccc(Sc6nccn6C)c(Cl)c5)c4c3)nc2)CC1` [Example 181, 4-({3-Chloro-4-[(1-methyl-1H-imidazol-2-yl)sulfanyl]phenyl}amino)-6-[5-(4-ethyl-1-piperazinyl)-2-pyridinyl]-3-quinolinecarbonitrile]: the melting point was 150 °C (dec.).
Regarding `Cn1ccnc1Sc1ccc(Nc2c(C#N)cnc3cc(-c4ncccc4CN4CCOCC4)ccc23)cc1Cl` [Example 207, 4-({3-Chloro-4-[(1-methyl-1H-imidazol-2-yl)sulfanyl]phenyl}amino)-7-[3-(4-morpholinylmethyl)-2-pyridinyl]-3-quinolinecarbonitrile], the melting point is 195 °C (dec.).
As to `COCCN(C)c1ccc(-c2ccc3c(Nc4ccc(Sc5nccn5C)c(Cl)c4)c(C#N)cnc3c2)cn1` [Example 212, 4-({3-Chloro-4-[(1-methyl-1H-imidazol-2-yl)sulfanyl]phenyl}amino)-7-{6-[(2-methoxyethyl) (methyl)amino]-3-pyridinyl}-3-quinolinecarbonitrile], the melting point was in the range of 224 to 226 °C.
For the molecule `CCN1CCN(Cc2cccc(-c3ccc4c(Nc5ccc(Sc6nccn6C)c(Cl)c5)c(C#N)cnc4c3)n2)CC1` [Example 201, 4-{3-Chloro-4-[(1-methyl-1H-imidazol-2-yl)sulfanyl]anilino}-7-{6-[(4-ethyl-1-piperazinyl)methyl]-2-pyridinyl}-3-quinolinecarbonitrile], the melting point was 214 to 216 °C.
`COc1cc(Nc2c(C#N)cnc3cc(-c4ccc(CN5CCOCC5)cn4)ccc23)c(Cl)cc1Cl`: the melting point fell in the range of 220 to 222 °C.
With `COc1cc(Nc2c(C#N)cnc3cc(-c4ccc(CN5CCC(C(=O)O)CC5)cn4)ccc23)c(Cl)cc1Cl` [Example 177, 1-{6-[3-Cyano-4-(2,4-dichloro-5-methoxyphenylarino)-quinolin-7-yl]-pyridin-3-ylmethyl}-piperidine-4-carboxylic acid] the figure was 150 °C (dec.); with `Cn1ccnc1Sc1ccc(Nc2c(C#N)cnc3cc(-c4ccc(CN5CCC(O)CC5)s4)ccc23)cc1Cl` [Example 159, 4-{3-Chloro-4-[(1-methyl-1H-imidazol-2-yl)sulfanyl]anilino}-7-{5-[(4-hydroxy-1-piperidinyl)methyl]-2-thienyl}-3-quinolinecarbonitrile], 147 to 149 °C; with `CCN1CCN(Cc2cccnc2-c2ccc3c(Nc4ccc(Sc5nccn5C)c(Cl)c4)c(C#N)cnc3c2)CC1` [Example 208, 4-({3-Chloro-4-[(1-methyl-1H-imldazol-2-yl)sulfanyl]phenyl}amino)-7-{3-[(4-ethyl-1-piperazinyl)methyl]-2-pyridinyl}-3-quinolinecarbonitrile], 187 to 190 °C.
`N#Cc1cnc2cc(-c3csc(CN4CCOCC4)c3)ccc2c1Nc1ccc(Oc2ccccc2)cc1` [Example 7, 7-[5-(4-Morpholinylmethyl)-3-thienyl]-4-(4-phenoxyanilino)-3-quinolinecarbonitrile] gave a melting point of 221 to 223 °C.
Molecule `COc1cc(Nc2c(C#N)cnc3cc(-c4csc(C5OCCO5)c4)ccc23)c(Cl)cc1Cl` [Example 42, 4-(2,4-dichloro-5-methoxyanilino)-7-[5-(1,3-dioxolan-2-yl)-3-thienyl]-3-quinoline-carbonitrile] showed a melting point of 234 to 236 °C.
For `Cn1ccnc1Sc1ccc(Nc2c(C#N)cnc3cc(-c4ccc(N5CCOCC5)nc4)ccc23)cc1Cl` [Example 190, 4-{3-Chloro-4-[(1-methyl-1H-imidazol-2-yl)sulfanyl]anilino}-7-[6-(4-morpholinyl)-3-pyridinyl]-3-quinolinecarbonitrile], the melting point was over 250 °C.
With `Cn1ccnc1Sc1ccc(Nc2c(C#N)cnc3cc(-c4ccc(N5CCC(N6CCCC6)CC5)nc4)ccc23)cc1Cl` [Example 210, 4-({3-Chloro-4-[(1-methyl-H-imidazol-2-yl)sulfanyl]phenyl}amino)-7-{6-[4-(1-pyrrolidinyl)-1-piperidinyl]-3-pyridinyl}-3-quinolinecarbonitrile] the figure was 230 °C (dec.).
As for `Cn1ccnc1Sc1ccc(Nc2c(C#N)cnc3cc(-c4ccc(CN5CCSCC5)cn4)ccc23)cc1Cl` [Example 219], the melting point was 220 to 222 °C.
`CC(C)N1CCN(Cc2ccc(-c3ccc4c(Nc5ccc(Sc6nccn6C)c(Cl)c5)c(C#N)cnc4c3)cc2)CC1` [Example 98, 4-({3-Chloro-4-[(1-methyl-1H-imidazol-2-yl)sulfanyl]phenyl}amino)-7-{4-[(4-isopropyl-1-piperazinyl)methyl]phenyl}-3-quinolinecarbonitrile]: the melting point fell in the range of 193 to 195 °C.
To `CCN1CCN(Cc2ccc(-c3ccc4c(Nc5ccc(Sc6nccn6C)c(Cl)c5)c(C#N)cnc4c3)nc2)CC1` [Example 171, 4-{3-Chloro-4-[(1-methyl-1H-imidazol-2-yl)sulfanyl]anilino}-7-{5-[(4-ethyl-1-piperazinyl)methyl]-2-pyridinyl}-3-quinolinecarbonitrile] belongs 125 to 130 °C.
With `Cc1cc(Nc2c(C#N)cnc3cc(-c4csc(CN5CCOCC5)c4)ccc23)ccc1OCc1ccccn1` [Example 95, 4-[3-Methyl-4-(2-pyridinylmethoxy)anilino]-7-[5-(4-morpholinylmethyl)-3-thienyl]-3-quinolinecarbonitrile] the figure was 217 to 219 °C; with `Cn1ccnc1Sc1ccc(Nc2c(C#N)cnc3cc(-c4ccc(C=O)cn4)ccc23)cc1Cl` [Example 170, 4-{3-Chloro-4-[(1-methyl-1H-imidazol-2-yl)sulfanyl]anilino}-7-(5-formyl-2-pyridinyl)-3-quinolinecarbonitrile], 130 °C (dec.); with `Cn1ccnc1Sc1ccc(Nc2c(C#N)cnc3cc(-c4ccc(Cl)cn4)ccc23)cc1Cl` [Example 178, 4-({3-Chloro-4-[(1-methyl-1H-imidazol-2-yl)sulfanyl]phenyl}amino)-7-(5-chloro-2-pyridinyl)-3-quinolinecarbonitrile], 205 to 207 °C.
`Cc1cc(Nc2c(C#N)cnc3cc(-c4csc(C5OCCO5)c4)ccc23)ccc1OCc1ccccn1` [Example 94, 7-[5-(1,3-Dioxolan-2-yl)-3-thienyl]-4-[3-methyl-4-(2-pyridinylmethoxy)anilino]-3-quinolinecarbonitrile] had a melting point of 194 to 196 °C.
With `CN1CCN(Cc2ccc(-c3ccc4ncc(C#N)c(Nc5ccc(Sc6nccn6C)c(Cl)c5)c4c3)nc2)CC1` [Example 183, 4-({3-Chloro-4-[(1-methyl-1H-imidazol-2-yl)sulfanyl]phenyl}amino)-6-{5-[(4-methyl-1-piperazinyl)methyl]-2-pyridinyl}-3-quinolinecarbonitrile] the figure was 260 to 262 °C.
To `N#Cc1cnc2cc(-c3ccc(-c4ccccn4)s3)ccc2c1Nc1ccc(Cl)cc1Cl` [Example 18, 4-(2,4-dichloroanilino)-7-[5-(2-pyridinyl)-2-thienyl]-3-quinolinecarbonitrile] belongs 270 °C (dec.); to `Cn1ccnc1Sc1ccc(Nc2c(C#N)cnc3cc(-c4ccc(N5CCC(O)CC5)nc4)ccc23)cc1Cl` [Example 214, 4-({3-Chloro-4-[(1-methyl-1H-imidazol-2-yl)sulfanyl]phenyl}amino)-7-[6-(4-hydroxy-1-piperidinyl)-3-pyridinyl]-3-quinolinecarbonitrile], 178 to 180 °C.
